In patent publication US20080090788A1, “Chemical Compounds” (priority 2005, published 2008):

Legend:
NF-kB = NF-kB luciferase reporter activity in LPS-stimulated U937-kBluc cells; type: cell-based, human; conditions: for IC50: Homo sapiens, U937-kBluc cells, LPS 0.3 μg/ml, 6 hours, mean of duplicate determinations ±SD, read-out: IC50 for inhibition of LPS-induced NF-kB activity; for average luciferase activity, % of the activity in DMSO treated cells: 2 mM, ±SD
Procedure: U937-kBluc cells were cultured in a 96 well plate (2×10^4 cells in 100 μl in each well) and stimulated with 0.3 μg/ml LPS (lipopolysaccaride; Sigma Aldrich). After 6 hours, cells were collected and luciferase activity determined using the luclite reagent (Perkin Elmer UK, Beaconsfield, UK) and a Packard TopCount (Perkin Elmer), as described by the manufacturer. To determine the effect of SFZ and analogues, various concentrations of each compound or an equivalent amount of DMSO as a solvent control were added 1 hour prior to addition of LPS. Each determination was made in triplicate. A cell line containing an NF-kB reporter construct was used to determine the effects of SFZ analogues on NF-kB activity. Cells were treated with LPS to induce NF-kB activity in the presence or absence of each compound, or DMSO as a solvent control, and luciferase activity analysed as a measure of NF-kB dependent transcription (FIG. 1). […] U937-kBluc cells were treated with LPS to activate NF-kB in the presence of increasing concentrations of SFZ, derivatives (3a-f), or DMSO as a solvent control. For each concentration of compound, the percentage inhibition of luciferase activity relative to cells treated with an equivalent amount of DMSO was calculated. (A) Representative dose response experiment (♦, 3a; ▪, SFZ). Each data point is the mean of triplicate samples (±SEM). (B) Detailed dose response assays were performed for compounds which gave >50% inhibition at 2 mM. The mean IC50 value (±SD) for inhibition of LPS-induced NF-kB activity is derived from 2 independent experiments, each performed in triplicate.

ARH77 cells = type: cell-based; conditions: human, 4 days, 2 mM
Procedure: To determine the growth inhibitory effects of compounds 2a, SPY, 2c, 2d, ARH77 cells (2×10^4 cells in 100 μl in each well of a 96 well plate) were incubated with each compound or an equivalent amount of DMSO. Four days later, cell growth was determined using the Aqueous One Solution Cell Proliferation Assay (MTS) (Promega) according to the manufacturer's instructions. Each determination was made in triplicate. Relative cell growth was determined by subtracting the absorbance of wells containing medium and lacking cells, and dividing by absorbance values derived from cells treated with an equivalent volume of DMSO.
Reduction of SFZ in the gut to give SPY is thought to be responsible for much of the toxicity associated with therapy. The putative reduction products of the novel SFZ derivatives were associated with increased or decreased toxicity was investigated. ARH77 cells were treated for 4 days with compounds 2a (i.e., putative reduction product of 3a and 3b), 2c (putative reduction product of 3d), and 2d (putative reduction product of 3e and 3f), and SPY (reduction product of SFZ and 3c). Cell growth was determined using an MTS assay. The percent growth inhibition at 2 mM (FIG. 6) was measured. […] Cytotoxicity of 2a and 2c was slightly less than SPY with 27±8% and 24±3% growth inhibition, respectively. 2d was essentially non-toxic in this assay with −6±16% growth inhibition. The ability of compounds 2a, 2c and 2d to interfere with NF-kB activity in LPS treated U937-kBluc cells was also tested.
ARH77 cells were incubated with 2 mM of 2a, 2c, 2d, SPY or DMSO as a solvent control. After 4 days, cell growth was determined using an MTS assay. Percentage growth inhibition for each compound relative to DMSO treated cells was determined. Mean growth inhibition is shown (±SD). Data are derived from two separate experiments, each performed in triplicate.

Compound | IC50 (NF-kB) | percent growth inhibition (ARH77 cells) | average luciferase activity, % of the activity in DMSO treated cells (NF-kB)
CNS(=O)(=O)c1ccc(/N=N/c2ccc(O)c(C(=O)O)c2)cc1 [Compound 3d, 2-hydroxy-5-(4-methylsulfamoyl-phenylazo)-benzoic acid] | 1240 ± 106 µM | – | –
Cc1cc(/N=N/c2ccc(S(=O)(=O)Nc3ccccn3)cc2)cc(C(=O)O)c1O [Compound 3c, 2-hydroxy-3-methyl-5-[4-(pyridin-2-ylsulfamoyl)-phenylazo]benzoic acid] | 1100 ± 40 µM | – | –
COc1ccc(CNS(=O)(=O)c2ccc(N)cc2)cc1 [Compound 2a, N-(p-methoxybenzyl)-4-aminobenzenesulfonamide] | – | 27±8% | –
CNS(=O)(=O)c1ccc(N)cc1 [Compound 2c] | – | 24±3% | –
Nc1ccc(S(=O)(=O)Nc2ccccn2)cc1 [SPY, sulfapyridine, reference compound] | > 2000 µM | – | 151±71%
Nc1ccc(S(=O)(=O)NCc2ccc(C(F)(F)F)cc2)cc1 [Compound 2d] | – | −6±16% | –
Nc1ccc(O)c(C(=O)O)c1 [Compound 5-ASA, 5-amino salicylic acid, reference compound] | > 2000 µM | – | 121±32%
COc1ccc(CNS(=O)(=O)c2ccc(/N=N/c3ccc(O)cc3)cc2)cc1 [Compound 3b] | > 2000 µM | – | 87.5±3.3%
